Source: patent US8021831B2, “Taxane chemosensitivity prediction test” (Board of Regents, The University of Texas System, priority 2003, dated 2011)

Tests used:
microtubule site = details: higher than paclitaxel, same microtubule site; cited from earlier work
MCF-7 cells [1] = test: Mitotic indices after paclitaxel treatment; format: cell-based, human; details: MCF-7 control (siRNA/control) cells; paclitaxel 100 nM; 24 hr after treatment
Protocol: FIG. 1C—Mitotic indices of each cell after treatment with paclitaxel. Twenty-four hr after transfection, cells were treated with paclitaxel (100 nM) and harvested at the indicated times.
Calculation of mitotic indices. Cells with mitotic condensed chromatin were visualized by staining with 10 μM Hoechst 33342 dye (Aventis Pharmaceuticals Inc., Bridgewater, N.J.) in conjunction with 10 μg/ml propidium iodide; the propidium iodide was incorporated into dead cells only. […] The cells were harvested at 12, 24, and 36 hr after transfection and the mitotic indices calculated.
(§9) To test the effects of suppression of Mad2, BubR1, or both on the spindle assembly checkpoint activated by paclitaxel, the mitotic indices were determined and the Cdk1 activity measured, both of which reflect the status of this checkpoint.

MDA-MB435 = test: Paclitaxel cytotoxicity test (MTT assay); format: cell-based, human; details: 1, 5, 10, 50 or 100 nM paclitaxel, 72 hr
Protocol: (§1) FIG. 5. Sensitivities of cell lines to Paclitaxel were judged according to a graph analysis of the Paclitaxel cytotoxicity test. […] The Paclitaxel cytotoxicity test was performed as follows. The cells were cultivated in wells of a 96-well culture plate in presence of 1, 5, 10, 50 or 100 nM Paclitaxel. After 72 hr cultivation, cell survival was measured by the MTT assay.
(§2) Drug sensitivity assays. Cells were detached by trypsinization, seeded at 2.0×10^3 cells/well in a 96-well microtiter plate, and treated with various concentrations of paclitaxel (1, 5, 10, 50, 100 and 1000 nM). Seventy-two hr later, the effects on cell growth were examined by 3-(4,5-dimethylthiazol-2-yl)-2,5-diphenyl tetrazolium bromide (MTT) assay: 20 μl of MTT solution (5 mg/ml in phosphate-buffered saline; Sigma Aldrich) was added to each well, and the cells were incubated for 4 hr at 37° C. The MTT-formazan formed by metabolically viable cells was dissolved in 100 μl of cell lysis buffer, and […] was monitored using a microplate at a wavelength of 570 nm. The percentage of cell growth was calculated by defining the absorption of cells not treated with paclitaxel (control) as 100%.
(§3) Sensitivities of four human breast cancer cell lines to paclitaxel were judged according to a graph analysis of the paclitaxel cytotoxicity test (FIG. 5). […] The paclitaxel cytotoxicity test was performed as follows. The cells were cultivated in wells of a 96-well culture plate in presence of 1, 5, 10, 50 or 100 nM paclitaxel. After 72 hr cultivation, cell survival was measured by the MTT assay.

MDA-MB231 = test: Paclitaxel cytotoxicity test (MTT assay); format: cell-based, human; details: 1, 5, 10, 50 or 100 nM paclitaxel, 72 hr
Protocol: as §1, §2, §3

MCF-7 = test: Paclitaxel cytotoxicity test (MTT assay); format: cell-based, human; details: 1, 5, 10, 50 or 100 nM paclitaxel, 72 hr
Protocol: as §1, §2, §3

T47D = test: Paclitaxel cytotoxicity test (MTT assay); format: cell-based, human; details: 1, 5, 10, 50 or 100 nM paclitaxel, 72 hr
Protocol: as §1, §2, §3

[2] = test system: Cdk1 activity in MCF-7 cells; test: Cdk1 kinase assay after paclitaxel treatment; format: cell-based, human; details: MCF-7 control cells; paclitaxel 100 nM; 24 hr after treatment
Protocol: Twenty-four hr after transfection, cells were treated with paclitaxel (100 nM) and harvested at the indicated times. FIG. 1D—Cyclin-dependent kinase-1 (Cdk1) activity after treatment with paclitaxel in each cell. Twenty-four hr after transfection, cells were treated with paclitaxel (100 nM) and harvested at the indicated times. Activity of Cdk1 in the lysates was determined as described in Experimental procedures.
Cdk1 kinase assay. The Cdk1 protein kinase assay was performed using the SignaTECT cdc2 protein assay system (Promega, Madison, Wis.). Briefly, the harvested cells were lysed with the extraction buffer (50 mM Tris [pH 7.4], 150 mM NaCl, 0.1% Triton X-100, and 1 mM EDTA) containing protease inhibitors (100 μg/ml aprotinin and 0.5 mM phenylmethane sulphonyl fluoride) and phosphatase inhibitors (50 mM NaF). These lysates were conjugated with a substrate consisting of cdc2-specific biotinylated peptide derived from histone H1 and [γ-^32P] ATP, and incubated at 30° C. for 10 min. […] After several washings, each captured membrane was placed into a separate vial and analyzed using a liquid scintillation counter (Beckman Coulter, Palo Alto, Calif.).
as §9

[3] = test system: resistant tumor (tumor of T47D); test: Tumor volume in tumor-bearing nude mice, resistant tumor; format: in vivo; details: 20 mg paclitaxel per day i.p., Days 34-38, until day 43
Protocol: (§4) FIG. 7. The susceptible and resistant cells (1×10^7 cells/mouse) were inoculated into nude mice. When the tumor volume reached more than 300 mm^3, 20 mg of Paclitaxel per day was intraperitoneally administered on five consecutive days (Days 34-38 after the inoculations). The tumor size was recorded on Days 20-43. […] By contrast, the volume of resistant tumor remained at 350 mm^3 until Day 43.
(§5) To further confirm the above in vitro results, an in vivo validation study was performed. The susceptible and resistant cells were inoculated into nude mice. When the tumor volume reached more than 300 mm^3, 20 mg of paclitaxel per day was intraperitoneally administered on five consecutive days (Days 34-38 after the inoculations). The tumor size was recorded on days 20-43. […] By contrast, volume of resistant tumors remained at 350 mm^3 until day 43.
(§6) The susceptible and resistant cells (1×10^7 cells/mouse) were inoculated into nude mice. When the tumor volume reached more than 300 mm^3, 20 mg of paclitaxel per day was intraperitoneally administered on five consecutive days (Days 34-38 after the inoculations). The tumor size was recorded on days 20-43. […] By contrast, the volume of resistant tumor remained at 350 mm^3 until day 43 (FIG. 7).

[4] = test system: previously treated metastatic breast cancer; details: previously treated metastatic breast cancer patients; cited from earlier work
[5] = test system: CDK1 in tumor of MDA-MB231; test: Cell cycle profiling of tumor tissue lysates, CDK1 specific activity; format: in vivo, nude mice; details: 24 hr after treatment
Protocol: (§7) FIG. 8. Lysates of the tumor tissues from tumor-bearing mice were subjected to cell cycle profiling. […] These are (A1) CDK1 specific activity 24 hr after treatment; (A2) CDK2 specific activity before treatment; (E5) MAD2 expression before treatment; (E3) Cyclin E expression before treatment; (E4) p21 expression before treatment; and (E1) CDK6 expression before treatment. The value plotted in the graph was calculated by dividing with the bigger raw value between two tumors on the each parameter.
(§8) Enzyme activity analyses of cell cycle profiling. Enzyme activity analyses of cell cycle profiling were performed using a non-radioisotopic method. Cell lysates were prepared as described for expression analysis. […] After three washes with washing buffer (0.1% NP-40, 50 mM Tris-Cl [pH 7.4]), 50 μl of the substrate mixture containing 10 μg of protein substrate, 5 mM adenosine 5′-O-(3-thiotriphosphate) (Sigma), 20 mM Tris-Cl (pH 7.4), and 0.1% Triton X-100 was added to the beads and incubated under continuous shaking at 37° C. for 10 min. Histone H1 (Upstate Biotechnology, Lake Placid, N.Y., USA) was used as the protein substrate for CDK1 and CDK2, and recombinant RB protein (amino acids 769-921) for CDK4 and CDK6. After the beads were removed, the introduced monothiophosphates in the substrate were further labeled by incubation with 10 mM iodoacetyl-biotin (Pierce) in coupling buffer (100 mM Tris-Cl [pH 8.5], 1 mM EDTA) for 90 min in the dark at room temperature. The reaction was quenched with β-mercaptoethanol, and 0.4 μg of the substrate was applied to the wells of the dot-blot device. The wells were blocked with 4% bovine serum albumin (BSA) for 30 min, then incubated with avidin-FITC (Vector) for 1 hr at 37° C.

CDK1 in tumor of T47D = test: as above; format: in vivo, nude mice; details: 24 hr after treatment
Protocol: as §7, §8

[6] = test system: advanced drug refractory ovarian cancer; details: advanced drug refractory ovarian cancer patients; cited from earlier work
various lung cancers = details: patients; cited from earlier work
MCF-7 cells [7] = test: Cell death analysis (trypan blue exclusion); format: cell-based, human; details: MCF-7 control cells, paclitaxel 100 nM, 48 hr
Protocol: FIG. 2B—MCF-7 cells transfected with siRNA/Mad2, BubR1, or both were examined for cell death induced by paclitaxel. Twenty-four hr after transfection, cells were treated with paclitaxel (100 nM) for 48 hr. Cell viability was assessed using trypan blue exclusion assay.
Cell death analysis. Cell death was evaluated using the trypan blue dye exclusion assay. Briefly, cells were harvested using trypsin and stained with 0.4% trypan blue dye (Sigma-Aldrich Chemical Co., St. Louis, Mo.). Trypan blue-positive and -negative cells were counted using a hemacytometer (Hausser Scientific, Horsham, Pa.) under a phase-contrast microscope (Fisher Scientific, Pittsburgh, Pa.). The results of each assay were expressed in terms of the percentage of dead cells relative to the total number of cells. Individual experiments were performed in triplicate.
Next, to determine whether these resistances were due to the reduction of cell death induced by paclitaxel, the inventors assessed the population of cell death using trypan blue exclusion.

[8] = test system: susceptible tumor (tumor of MDA-MB231); test: Tumor volume in tumor-bearing nude mice, susceptible tumor; format: in vivo; details: 20 mg paclitaxel per day i.p.
Protocol: as §4, §5, §6

SMILES | affinity for the microtubule site relative to paclitaxel (microtubule site) | control cells arrested at mitosis (MCF-7 cells [1]) | Sensitivity of cell line to paclitaxel (judged by graph analysis of cytotoxicity test) (MDA-MB435) | Sensitivity of cell line to paclitaxel (judged by graph analysis of cytotoxicity test) (MDA-MB231) | Sensitivity of cell line to paclitaxel (judged by graph analysis of cytotoxicity test) (MCF-7) | Sensitivity of cell line to paclitaxel (judged by graph analysis of cytotoxicity test) (T47D) | Cdk1 activity [2] | tumor volume remained at [3] | Response rate [4] | CDK1 specific activity (A1), divided by the bigger raw value [5] | CDK1 specific activity (A1), raw value [5] | CDK1 specific activity (A1), divided by the bigger raw value (CDK1 in tumor of T47D) | CDK1 specific activity (A1), raw value (CDK1 in tumor of T47D) | Response rate [6] | Response rate (various lung cancers) | levels of cell death (MCF-7 cells [7]) | tumor volume before decrease (start value) ([8]; Days 34-38) | tumor volume after decrease (end value) ([8]; Days 34-38, recorded to day 43)
CC(=O)O[C@@]12CO[C@@H]1C[C@H](O)[C@@]1(C)C(=O)[C@H](O)C3=C(C)[C@@H](OC(=O)[C@H](O)[C@@H](NC(=O)OC(C)(C)C)c4ccccc4)C[C@@](O)([C@@H](OC(=O)c4ccccc4)[C@H]21)C3(C)C [docetaxel, (2R,3S)-N-carboxy-3-phenylisoserine, N-tert-butyl ester, 13-ester with 5b-20-epoxy-12a,4,7b,10b,13a-hexahydroxytax-11-en-9-one 4-acetate 2-benzoate, trihydrate] | 1.9 fold | – | – | – | – | – | – | – | – | – | – | – | – | – | – | – | – | –
CC(=O)O[C@H]1C(=O)[C@@]2(C)[C@H]([C@H](OC(=O)c3ccccc3)[C@]3(O)C[C@H](OC(=O)[C@H](O)[C@@H](NC(=O)c4ccccc4)c4ccccc4)C(C)=C1C3(C)C)[C@]1(OC(C)=O)CO[C@@H]1C[C@@H]2O [paclitaxel] | – | at least 80% | susceptible | susceptible | resistant | resistant | dramatic increase | 350 mm^3 | 27-62% | 1.0 | 3.0 mU/ng of CDK1 | 0.067 | 0.2 mU/ng of CDK1 | 19-36% | 21-37% | high | 460 mm^3 | 120 mm^3
